One data set deals with mouse liver. Briefly: APAP acute liver injury in mice, histology/IHC (TUNEL, PCNA). The format is in vivo. The following applies: 300 mg/kg APAP i.p. As to the method: Mice were then used for isolation of primary hepatic cells for single cell RNA-sequencing or tissue harvest for further downstream analysis.
A portion of liver tissue was fixed in 10% neutral buffered formalin for 48 hrs and further processed to obtain paraffin blocks and 5 μm thick sections. A portion of liver tissue was frozen in optimal cutting temperature (OCT) medium and used to obtain 10 μm fresh frozen sections.
Histology was performed by the histology core at Beth Israel Deaconess Medical Center using standard procedures and automated workflow. Samples were processed and embedded following fixation in 10% neutral buffered formalin for 48 hrs. Samples were embedded in paraffin and sectioned at […]. Immunohistochemistry was performed on a Leica autostainer (Leica Biosystems) with enzyme treatment (1:1000) using standard protocols. The antibody used for assessment of cell proliferation was PCNA (Cell Signaling, Cat. 13110, 1:800), and cell death was ApopTag Peroxidase In Situ Apoptosis Detection Kit (Millipore, Cat. #S7100). Macrophages were stained using the anti-F4/80 (Cell Signaling, Cat. 70076, 1:500). Sections were then counterstained with hematoxylin, dehydrated, and film cover slipped. Four representative images were captured per slide. TUNEL-positive area, PCNA-positive cells, and F4/80-positive cells were measured and averaged across the four images for each sample using Fiji.

The next data set has as its system hepatocytes. Briefly: Gene set analysis (piano) of composite DEG, APAP vs untreated. Set-up: species or system mouse. From the text:
Shared and unique by injury model gene lists were assembled by combining DE results across all time points for each injury. Applicants ran differential expression using Wilcox test in the FindAllMarkers Seurat function between each treatment condition (A6, A24, A48, A96, PH3, PH48, PH120) individually and untreated (UT). […] A small number of genes were up at one time point, but down at another.
Applicants ran pathway analysis on the composite DE results using the piano R package. Reference gene sets were downloaded from MSigDB (Broad Institute). Applicants used geneSetStat=“fisher”, adjMethod=“fdr”, and signifMethod=“geneSampling”. Applicants then parsed the results to identify shared and unique reference gene sets for each injury. Any reference gene set with a q-value greater than 0.05 was discarded as insignificant. […] Selected reference gene set −log(q) are plotted in FIG. 20.

As to `CC(=O)Nc1ccc(O)cc1` [APAP, acetaminophen], the “histological analysis of liver” value in the data set with mouse liver (6 hrs post-APAP (A6)) is on record as “pericentral necrosis”. Moreover, the histology of liver result in the data set with mouse liver (24 hrs post-APAP (A24)) is “persistent pericentral necrosis”. Besides, the “total cell loss (liver cell mass) after APAP exposure” value in the data set on mouse liver (PH ~70%) is reported as approximately 10%. Besides, the “anti-oxidant response by gene set analysis (GSA)” value with hepatocytes is reported as “substantial anti-oxidant response”.

For the origin of these results see patent US20230053540A1, “TREATMENT OF LIVER INJURY” (Massachusetts Institute of Technology, priority 2019, published 2023).
